What is called Tmax is the time from dosing to the highest level. A word on the AUC(0-t): it is exposure summed from dosing to a finite time, without extrapolation to infinity. As a reminder, the Cmax is the maximum level reached in the sampled fluid or tissue.

Where “and” joins values, the source holds several entries; their conditions need not be identical. Identical values can stand only once.

The values below come from patent publication US20240307420A1, “IMPROVED METHODS FOR THE USE OF PSYCHEDELICS” (TRYP Therapeutics Inc., priority 2021, published 2024).

Data set [1] concerns rats. Kind of data set: Head twitching response (HTR) after one-hour intravenous infusion, video recording. It counts as in vivo, Sprague Dawley rats. The note with it: for Time after termination of infusion up to which head twitching was observed: after one hour 10 mg/kg IV infusion. The protocol:
To assess the pharmacodynamics (PD) of intravenously infused psychedelics, animal head-twitching was recorded as an indicator of achieving the dissociative state. Head twitching response (HTR) is used as a surrogate PD marker for the animals achieving or being in the dissociative or psychedelic state (for example, as described in Zhuk et al., Toxins 2015, 7, 1018-1029; Halberstadt et al., J Psychopharmacol. 2011 25(11): 1548-1561). HTR was also used to determine when the end of the dissociative state occurred following discontinuation of the IV infusion.
To assess HTR, a video monitoring system was used to record the animals in this study from discontinuation of the infusion through to the terminal sampling time point (1-hour post infusion). A camera was positioned such that the animals were visible from above. The recording was saved for review and the time of the observed head-twitching behavior, the duration of the observed behavior, and any additional atypical observations were documented.
The number of head-twitching events observed within the 60 minute time period after the one hour intravenous infusion of each of the 3 rats receiving psilocin or psilocybin, were determined from the video recordings. […] Upon termination of the IV infusion of either psilocin or psilocybin, head twitching activity subsided within 50 minutes, supporting the rapid termination of the dissociative or psychedelic, compared to previously reported termination of the dissociative state after an oral administration of psilocybin.

Data set [2] can be described thus: Plasma psilocin pharmacokinetics during and after one-hour intravenous infusion of psilocin or psilocybin. The note with it: for AUC(0-t): AUCT; for concentration at 0.25 h / concentration at 0.5 h / concentration at 1 h / concentration at 2 h / concentration at 4 h / concentration at 6 h / concentration at 8 h: Plasma concentration of psilocin.
The conditions of data set [3]: single oral administration of psilocybin at 0.225 mg/kg; cited from earlier work.
For data set [4], the system named is rats. Kind of data set: Head twitching response in unrestrained rats prior to, during and after 60 minute infusion (separate study). It is filed as in vivo. The settings on record: 10 mg/kg over 60 minutes IV. The procedure: In a separate study, unrestrained rats were infused with 10 mg/kg psilocybin over a 60 minute period and head twitching response (HTR) was recorded prior to during and after IV administration. HTR was consistently observed in all tested rats, within 5 minutes after initiation of the infusion, and persisted during the 60-minute infusion period. HTR was discontinued in the animals soon after the termination of the infusion, generally within 30 minutes after the termination of the infusion. The results of the HTR supported the more rapid achievement of the dissociative or psychedelic state, coincident with the rise in systemic plasma psilocin levels, and rapid exit from the dissociative or psychedelic state after the termination of infusion (e.g., as assessed in Example 1).

The test system of data set [5] is rats. Kind of data set: Hot Plate assay (HPA) withdrawal latency in formalin-induced rat pain model. It counts as in vivo. The settings on record: 52.5° C. hot plate; single 10 mg/kg IV administration. An excerpt: Chronic pain in rats was induced by injection of formalin into the hind paw. The rats subsequently were intravenously administered psilocybin, and assessed for changes in pain perception over an extended period of time. The formalin pain model is a translational animal model for chronic nociplastic pain (Vanini G., Sleep 2016; 39(1): 133-42), including fibromyalgia, phantom limb pain or complex regional pain syndrome. In the formalin pain model, in addition to experiencing extra pain in the formalin-injected paw, the animal experiences increased pain perception (i.e., hyperalgesia) in extremities not injected with formalin (e.g., the contra-lateral hind paw compared to the one injected with formalin). The pain perception was measured in the contra-lateral paw to assess the potential benefit of psychedelics in nociplastic pain disorders. […]
The second pain measurement was based on the Hot Plate Assay (HPA), which measures the withdrawal latency at temperatures that register a painful response (i.e., thermal hyperalgesia). […] Once heated, each animal was placed in cylindrical tube on the hot plate and the latency to lick a hind paw or observed overt escape behavior (e.g., attempt to jump out of cylinder) was recorded (Ingram et al., Neruopsychopharmacology 2007; 32(3):600-6; Gunn et al., J Pain 2011; 12(2):222-7; Hestehave et al., Lab Anim 2016; 51(3):264-72). […]
On the technique in general: In hot-plate and tail-flick tests a longer latency is read as antinociception.

Data set [6] relates to rats. The experiment in a line: Von Frey assay (VFA) withdrawal threshold in formalin-induced rat pain model. It counts as in vivo. The note with it: contra-lateral paw; single 10 mg/kg IV administration. An excerpt:
Chronic pain in rats was induced by injection of formalin into the hind paw. The rats subsequently were intravenously administered psilocybin, and assessed for changes in pain perception over an extended period of time. The formalin pain model is a translational animal model for chronic nociplastic pain (Vanini G., Sleep 2016; 39(1): 133-42), including fibromyalgia, phantom limb pain or complex regional pain syndrome. In the formalin pain model, in addition to experiencing extra pain in the formalin-injected paw, the animal experiences increased pain perception (i.e., hyperalgesia) in extremities not injected with formalin (e.g., the contra-lateral hind paw compared to the one injected with formalin). The pain perception was measured in the contra-lateral paw to assess the potential benefit of psychedelics in nociplastic pain disorders. Reduction in pain perception and the duration of pain reduction were examined following intravenous bolus administration of 10 mg/kg psilocybin, administered over 3 minutes.
Two types of pain perception were measured. First, the Von Frey assay (VFA) was used to measure pain due to pressure exerted on the extremity (i.e., mechanical allodynia). Specifically. […] The minimum amount of force required to evoke a paw withdrawal response in each trial was determined to be the minimum withdrawal threshold for that animal trial. […]

The mark [7] stands for this setting: plasma psilocin, individual rats, 10 mg/kg psilocin one-hour IV infusion.

For `CN(C)CCc1c[nH]c2cccc(O)c12` [psilocin, 4-hydroxy-N,N-dimethyltryptamine], in the data set on rats [1] (60 minute period after one hour 10 mg/kg IV infusion), the “Rats in which head-twitching was observed” value is reported as 2 of 3. In addition, the “Time after termination of infusion up to which head twitching was observed” value in the data set on rats [1] was no more than 16 min. Also, the “Plasma concentration of psilocin” value was 1031.8 ng/mL and 982.7 ng/mL in data set [2] (individual rats, 10 mg/kg psilocin one-hour IV infusion, sampling time 0.25 h); 1731.6 ng/mL and 1489.3 ng/mL in data set [2] (individual rats, 10 mg/kg psilocin one-hour IV infusion, sampling time 0.5 h); 2159.5 ng/mL and 1623.2 ng/mL in data set [2] (individual rats, 10 mg/kg psilocin one-hour IV infusion, sampling time 1 h); 965.6 ng/mL and 740.4 ng/mL in data set [2] (individual rats, 10 mg/kg psilocin one-hour IV infusion, sampling time 2 h); 249.1 ng/mL and 231.7 ng/mL in data set [2] (individual rats, 10 mg/kg psilocin one-hour IV infusion, sampling time 4 h); 80.2 ng/mL and 59.6 ng/mL in data set [2] (individual rats, 10 mg/kg psilocin one-hour IV infusion, sampling time 6 h). Also, the “Plasma concentration of psilocin” value in data set [2] (individual rats, 10 mg/kg psilocin one-hour IV infusion, sampling time 8 h) was 22.5 ng/mL and 26.8 ng/mL. The time of peak concentration (Tmax) in data set [2] (male, Sprague Dawley, rat, plasma, iv, 10 mg/kg) came out at 1 h. Also, the AUC(0-t) in data set [2] (male, Sprague Dawley, rat, plasma, iv, 10 mg/kg, plasma psilocin, individual rats, 10 mg/kg psilocin one-hour IV infusion) was 3550 ng·h/mL; in data set [2] (male, Sprague Dawley, rat, plasma, iv, 10 mg/kg, plasma psilocin, mean of 3 rats, 10 mg/kg psilocin one-hour IV infusion), 3980 ng·h/mL. Moreover, the Cmax in data set [2] (male, Sprague Dawley, rat, plasma, iv, 10 mg/kg, Cmax, plasma psilocin, individual rats, 10 mg/kg psilocin one-hour IV infusion) is 1610 ng/mL; in data set [2] (male, Sprague Dawley, rat, plasma, iv, 10 mg/kg, Cmax, plasma psilocin, mean of 3 rats, 10 mg/kg psilocin one-hour IV infusion) it was 1800 ng/mL; in data set [2] (setting [7]), 2159.5 ng/mL and 1623.2 ng/mL. The concentration at 0.25 h in data set [2] (male, Sprague Dawley, rat, plasma, iv, 10 mg/kg, individual rats, 10 mg/kg psilocin one-hour IV infusion, sampling time 0.25 h) came to 1070 ng/mL; in data set [2] (male, Sprague Dawley, rat, plasma, iv, 10 mg/kg, mean of 3 rats, 10 mg/kg psilocin one-hour IV infusion, sampling time 0.25 h) it was 1030 ng/mL. In addition, the concentration at 0.5 h in data set [2] (male, Sprague Dawley, rat, plasma, iv, 10 mg/kg, individual rats, 10 mg/kg psilocin one-hour IV infusion, sampling time 0.5 h) was 1510 ng/mL; in data set [2] (male, Sprague Dawley, rat, plasma, iv, 10 mg/kg, mean of 3 rats, 10 mg/kg psilocin one-hour IV infusion, sampling time 0.5 h), 1580 ng/mL. Besides, the concentration at 1 h in data set [2] (male, Sprague Dawley, rat, plasma, iv, 10 mg/kg, individual rats, 10 mg/kg psilocin one-hour IV infusion, sampling time 1 h) was found to be 1610 ng/mL; in data set [2] (male, Sprague Dawley, rat, plasma, iv, 10 mg/kg, mean of 3 rats, 10 mg/kg psilocin one-hour IV infusion, sampling time 1 h), 1800 ng/mL. Further, the concentration at 2 h was determined as 714 ng/mL in data set [2] (male, Sprague Dawley, rat, plasma, iv, 10 mg/kg, individual rats, 10 mg/kg psilocin one-hour IV infusion, sampling time 2 h) and 807 ng/mL in data set [2] (male, Sprague Dawley, rat, plasma, iv, 10 mg/kg, mean of 3 rats, 10 mg/kg psilocin one-hour IV infusion, sampling time 2 h). The concentration at 4 h in data set [2] (male, Sprague Dawley, rat, plasma, iv, 10 mg/kg, individual rats, 10 mg/kg psilocin one-hour IV infusion, sampling time 4 h) was 164 ng/mL; in data set [2] (male, Sprague Dawley, rat, plasma, iv, 10 mg/kg, mean of 3 rats, 10 mg/kg psilocin one-hour IV infusion, sampling time 4 h) it was 215 ng/mL. Moreover, the concentration at 6 h in data set [2] (male, Sprague Dawley, rat, plasma, iv, 10 mg/kg, individual rats, 10 mg/kg psilocin one-hour IV infusion, sampling time 6 h) was found to be 47.7 ng/mL; in data set [2] (male, Sprague Dawley, rat, plasma, iv, 10 mg/kg, mean of 3 rats, 10 mg/kg psilocin one-hour IV infusion, sampling time 6 h) it was 62.5 ng/mL. Further, the concentration at 8 h was 17.3 ng/mL in data set [2] (male, Sprague Dawley, rat, plasma, iv, 10 mg/kg, individual rats, 10 mg/kg psilocin one-hour IV infusion, sampling time 8 h) and 22.2 ng/mL in data set [2] (male, Sprague Dawley, rat, plasma, iv, 10 mg/kg, mean of 3 rats, 10 mg/kg psilocin one-hour IV infusion, sampling time 8 h). In data set [2] (setting [7]), the AUCT was 4656.4 ng·h/mL and 3741.6 ng·h/mL.
Turning to `CN(C)CCc1c[nH]c2cccc(OP(=O)(O)O)c12` [psilocybin, [3-(2-dimethylaminoethyl)-1H-indol-4-yl] dihydrogen phosphate], in data set [3], the “Average peak concentration of psilocin in plasma” value is given as 8.2+/−2.8 ng psilocin/ml plasma and the “Time of peak plasma levels of psilocin” value was 105 ± 37 min. Besides, the “Time to discontinuation of head twitching response after termination of the infusion” value with rats [4] is no more than 30 min. In addition, the “Time to head twitching response after initiation of the infusion” value in the data set on rats [4] (all tested rats) is no more than 5 min. The “Time after termination of infusion up to which head twitching was observed” value with rats [1] is “up to 50 minutes”. Moreover, in the data set on rats [5], the “Duration of improved pain sensitivity response (HPA withdrawal latency) compared to saline control” value is “at least 4 weeks”. In addition, in the data set on rats [6], the “Duration of statistically significant increase in VFA withdrawal threshold” value amounted to 3 weeks.
